Experimental data taken from patent US7947466B2 (priority 2003, dated 2011).
Entries after “also recorded” stand apart in the source; their conditions may differ. Where two headings read alike, the source gives them in different places.

Key:
Lymnaea AChBP [1] = target: T1, Lymnaea AChBP (Lymnaea stagnalis, UniProt P58154); test: biochemical; assay type: binding
Aplysia AChBP [2] = target: T2, Aplysia AChBP (Aplysia californica, UniProt Q8WSF8); test: biochemical; assay type: binding
Aplysia AChBP [3] = target: T2, Aplysia AChBP; test: biochemical; assay type: binding; remark: listed apart in the source
Lymnaea AChBP [4] = target: T1, Lymnaea AChBP; details: read-out: Lymnaea Kd; cited from earlier work
Target sequence in this assay (P58154 20-229 limits assumed): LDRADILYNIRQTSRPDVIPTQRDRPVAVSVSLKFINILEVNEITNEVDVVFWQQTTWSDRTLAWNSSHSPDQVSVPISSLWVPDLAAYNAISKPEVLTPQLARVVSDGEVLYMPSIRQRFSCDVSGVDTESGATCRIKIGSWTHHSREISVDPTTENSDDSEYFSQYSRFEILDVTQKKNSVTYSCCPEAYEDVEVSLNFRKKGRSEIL

Lymnaea AChBP [5] = target: T1, Lymnaea AChBP; test: biochemical; assay type: binding; remark: listed apart in the source
Target sequence in this assay (P58154 20-229 limits assumed): as above

Lymnaea AChBP [6] = target: T1, Lymnaea AChBP; assay type: binding
Target sequence in this assay (P58154 20-229 limits assumed): as above

T2 sequence (Q8WSF8 18-236): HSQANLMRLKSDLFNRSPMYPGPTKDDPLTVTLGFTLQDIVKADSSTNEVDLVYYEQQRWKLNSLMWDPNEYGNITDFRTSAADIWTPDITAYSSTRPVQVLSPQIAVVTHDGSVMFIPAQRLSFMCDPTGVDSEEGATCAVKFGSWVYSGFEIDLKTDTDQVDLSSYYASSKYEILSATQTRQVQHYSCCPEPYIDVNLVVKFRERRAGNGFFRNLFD

Row | Molecule | k1 (Lymnaea AChBP [1]) | k−1 (Lymnaea AChBP [1]) | Kd (Lymnaea AChBP [1]; read-out: Kd) | Kd Ratio L/A (Aplysia AChBP [2]) | k1 Lymnaea (Lymnaea AChBP [1]) | k−1 Lymnaea (Lymnaea AChBP [1]) | k1 Aplysia (Aplysia AChBP [2]) | k−1 Aplysia (Aplysia AChBP [2]) | Kd (Aplysia AChBP [3]) | change of tryptophan fluorescence on binding, A-AChBP (Aplysia AChBP [3]) | Kd (Lymnaea AChBP [1]) | further results
1 | 5-Dimethylaminonaphthylsulfonamidoethyltrimethylammonium [Dansyl-C2-choline] | 2.1e+08 M⁻¹ s⁻¹ | 2.9 s⁻¹ | 14 nM | – | – | – | – | – | – | – | – | –
2 | 5-Dimethylaminonaphthylsulfonamidohexyltrimethylammonium [Dansyl-C6-choline] | 1.3e+08 M⁻¹ s⁻¹ | 7.6 s⁻¹ | 58 nM | 0.069 | – | – | – | – | – | – | – | Kd (Aplysia AChBP [3]; read-out: Aplysia Kd): 1600 nM; Kd (Lymnaea AChBP [4]): 110 nM
3 | CN1CCCC1c1cccnc1 (single isomer, unassigned; (-)) [(−)-Nicotine] | 1.5e+08 M⁻¹ s⁻¹ | 5.7 s⁻¹ | – | – | 1.5e+08 M⁻¹ s⁻¹ | 5.7 s⁻¹ | 2.3e+08 M⁻¹ s⁻¹ | 49 s⁻¹ | 245 nM | markedly quenched fluorescence | – | change of tryptophan fluorescence on binding, L-AChBP (Lymnaea AChBP [5]): markedly quenched fluorescence
4 | CC(=O)OCC[N+](C)(C)C [Acetylcholine] | – | – | – | – | – | – | – | – | 33000 nM | – | – | –
5 | C[N+](C)(C)CCOC(N)=O [Carbachol] | – | – | – | 0.023 | – | – | – | – | 240000 nM | enhanced fluorescence emission | – | Kd (Lymnaea AChBP [5]): 5600 nM
6 | C[N+](C)(C)CCCCCCCCCC[N+](C)(C)C [Decamethonium] | 3.2 ± 0.17 ×10^8 M^−1 s^−1 | 120 ± 17 s⁻¹ | – | – | – | – | – | – | – | – | 380 nM | –
7 | Clc1ccc(C2CC3CCC2N3)cn1 (stereo not shown) [Epibatidine] | 1.7 ± 0.26 ×10^8 M^−1 s^−1 | 0.027 ± 0.037 s⁻¹ | – | 0.011 | 1.7e+08 M⁻¹ s⁻¹ | 0.027 s⁻¹ | 2.5e+08 M⁻¹ s⁻¹ | 3.4 s⁻¹ | – | markedly quenched fluorescence | 0.16 nM | Kd (Aplysia AChBP [2]): 14 nM; change of tryptophan fluorescence on binding, L-AChBP (Lymnaea AChBP [5]): markedly quenched fluorescence; quenching of the intrinsic tryptophan fluorescence (Lymnaea AChBP [6]): about 50%
8 | CC[N+](CC)(CC)CCOc1cccc(OCC[N+](CC)(CC)CC)c1OCC[N+](CC)(CC)CC [Gallamine] | 2.5 ± 0.14 ×10^8 M^−1 s^−1 | 36 ± 6.5 s⁻¹ | – | 1.2 | 2.5e+08 M⁻¹ s⁻¹ | 36 s⁻¹ | 2.5e+08 M⁻¹ s⁻¹ | 65 s⁻¹ | 120 nM | enhanced fluorescence emission | 140 nM | change of tryptophan fluorescence on binding, Lymnaea AChBP (Example 1) (Lymnaea AChBP [1]): enhancement of the tryptophan fluorescence; also recorded: increase in fluorescence; change of tryptophan fluorescence on binding, L-AChBP (Lymnaea AChBP [5]): enhanced tryptophan fluorescence
9 | CCN1C[C@]2(COC(=O)c3ccccc3N3C(=O)C[C@H](C)C3=O)CC[C@H](OC)[C@@]34[C@@H]5C[C@H]6[C@H](OC)[C@@H]5[C@](O)(C[C@@H]6OC)[C@@](O)([C@@H](OC)[C@H]23)[C@@H]14 [Methyllycaconitine] | – | – | – | 0.14 | 1.3e+07 M⁻¹ s⁻¹ | 0.005 s⁻¹ | 4.4e+07 M⁻¹ s⁻¹ | 0.12 s⁻¹ | – | – | – | Kd (Aplysia AChBP [2]): 2.8 nM; Kd (Lymnaea AChBP [4]): 0.41 nM
10 | O=C1C[C@@H]2OCC=C3CN4CC[C@]56c7ccccc7N1[C@H]5[C@H]2[C@H]3C[C@H]46 [Strychnine] | – | – | – | – | – | – | – | – | – | – | 23 nM | Kd (Aplysia AChBP [2]): 15 nM
11 | COc1cc2c3cc1Oc1cc(ccc1O)C[C@@H]1c4c(cc(OC)c(O)c4Oc4ccc(cc4)C[C@@H]3N(C)CC2)CC[N+]1(C)C [d-Tubocurarine] | 2e+08 M⁻¹ s⁻¹ | 30 s⁻¹ | 150 nM | – | – | – | – | – | – | – | – | –
12 | α-Bungarotoxin | 0.0097 ± 0.002 ×10^8 M^−1 s^−1 | 0.0017 ± 0.0003 s⁻¹ | 1.8 nM | 0.0071 | 900000 M⁻¹ s⁻¹ | 0.001 s⁻¹ | 1e+06 M⁻¹ s⁻¹ | 0.32 s⁻¹ | – | – | – | rate of association slower than for epibatidine (Lymnaea AChBP [1]): ~200 fold; unimolecular step k2 (slow phase limiting value) (Lymnaea AChBP [1]): 0.34 s⁻¹; lower affinity for A-AChBP than for L-AChBP (Aplysia AChBP [3]): 100 fold; Kd (Aplysia AChBP [3]; read-out: Aplysia Kd): 250 nM; quenching of the intrinsic tryptophan fluorescence (Lymnaea AChBP [6]): 15-20%; Kd (Lymnaea AChBP [4]): 1.8 nM
13 | α-Cobratoxin: α-neurotoxin, peptide toxin from elapid venom (protein) IRCFITPDITSKDCPNGHVCYTKTWCDAFCSIRGKRVDLGCAATCPTVKTGVDIQCCSTDNCNPFPTRKRP | 3.3e+06 M⁻¹ s⁻¹ | 0.011 s⁻¹ | 3.2 nM | – | – | – | – | – | – | – | – | –
